Data as given in a melting point compilation (Tetko et al.; mined from patent text by program, amines drawn as free bases though some values may be those of a salt).

Molecule `Cc1cccc2nc(NC(=O)c3ccc(C4(C(=O)O)CCC4)cc3)cn12` has a melting point of 272 °C.
For `CCCCCCCOc1ccc(C2CC(CCCCCC)C(=O)O2)cc1` (stereo not given), the melting point was 45.9 to 47 °C.
`NC(=O)/C(=N/O)c1ccccc1Oc1ccccc1` gave a melting point of 157 to 159 °C.
With `COc1ccccc1C1(O)C(=O)Nc2ccc(C)c(Cl)c21` (stereo not given) the melting point was 262 to 263 °C.
Work on `CCN1CC2OC(c3ccccc3)(C1)c1ccccc12` (stereo not given) yielded a melting point of 132 to 134 °C.
`CCCCCc1cnc(-c2ccc(F)cc2)nc1` gave a melting point of 28.6 °C.
Work on `COC(=O)COc1ccc(-c2coc3cc(OCC(=O)OC)ccc3c2=O)cc1` yielded a melting point of 163 to 166 °C.
Molecule `Cc1cc(C)c(N2CCCc3c2nn(C)c3Br)c(Cl)c1` has a melting point of 106 to 107 °C.
With `COc1cc(C(=O)CCCc2ccccc2)ccc1OCc1ccccc1` the melting point was 81 to 82 °C.
`C=CC(=O)Nc1ccc2c(Nc3cccc(Br)c3)ncnc2c1` showed a melting point of over 265 °C.
Molecule `O=C1N(Cc2ccccc2)Cc2cnc(Nc3ccc(N4CCCCC4)cn3)nc2N1C1CCCC1` has a melting point of 194 to 196 °C.
`COC(=O)COc1ccc(SCc2cc(-c3ccc(Cl)cc3)on2)c2c1CCCO2` gave a melting point of 131 to 133 °C.
For `CCOC(=O)C(CCc1ccccc1)(NC(C)=O)C(=O)OCC`, the melting point was 115 to 117 °C.
Molecule `CC(CCO)N1CCC(Cc2ccccc2)CC1` (stereo not given) has a melting point of 74 to 76 °C.
In the case of `CN1C(=O)CCC2c3ccc(Cl)cc3CCC21` (stereo not given), the melting point is reported as 82 °C.
`CCOC(=O)C(S)CC(=O)c1ccc(Oc2ccccc2)cc1` (stereo not given) showed a melting point of 46 to 47.5 °C.
In the case of `O=C(O)C(CSc1nc2ccccc2[nH]1)CS(=O)(=O)c1ccc(-c2ccc(Cl)cc2)cc1` (stereo not given), the melting point is reported as 176 to 179 °C.
With `CN1CCc2ccc(C(=O)CCC(=O)N3CCC(c4ccc(Cl)cc4)CC3)cc2CC1` the melting point was 143 to 145 °C.
Work on `NC(=O)c1nn(-c2ccc(F)cc2)c2c1CCc1ccc(NC(=O)c3cc(N4CCOCC4)ncc3Cl)cc1-2` yielded a melting point of 309 to 313 °C.
For `O=C1c2cc(NCCO)ccc2OC12CC2`, the melting point was 74 to 75 °C.
Work on `COC1([N+](=O)[O-])C=C([N+](=O)[O-])C=CC1O` (stereo not given) yielded a melting point of 68 to 70 °C.
With `COc1ccc(C2=NN(C3CCN(S(=O)(=O)c4cccc(C(=O)O)c4)CC3)C(=O)C2(C)C)cc1OC` the melting point was 244 °C.
Work on `O=c1[nH]c2ccccc2c(=O)n1CCS` yielded a melting point of 193 to 195 °C.
Molecule `CCc1ccc(OCCCN2CCN(c3ccc(Cl)nn3)CC2)cc1` has a melting point of 123 to 125 °C.
With `Cc1cc(C#N)cc2c(=O)oc(-c3cc(Br)nn3-c3ncccc3Cl)nc12` the melting point was 263 to 267 °C.
Work on `CCCCc1nc2ccc(C3=NN4CCCC4C3)cc2c(=O)n1Cc1ccc(-c2ccccc2-c2nnn[nH]2)cc1` (stereo not given) yielded a melting point of 126 °C.
Work on `Nc1nnc(C(CCc2ccccc2)NC(=O)c2ccc3[nH]c(-c4ccncc4)nc3c2)o1` (stereo not given) yielded a melting point of 160 °C.
Work on `Cn1c2c(c3ccccc31)OCC2=O` yielded a melting point of 113 to 116 °C.
For `COc1cc(C(=O)C#CCO)cc(OC)c1OC`, the melting point was 104 to 105 °C.
For `COc1ccccc1OCC1SCCN1C(=O)CI` (stereo not given), the melting point was 81 to 83 °C.
Molecule `COc1ccc(C2(O)OC(=O)C(c3cc(C)c4nsnc4c3)=C2Cc2cc(OC)c(OC3CCCCC3)c(OC)c2)cc1F` (stereo not given) has a melting point of 163 to 164 °C.
For `COc1cc2nccc(N3CCN(C(=O)Nc4ccc(Oc5ccccc5)cc4)CC3)c2cc1OC`, the melting point was 204 to 206 °C.
For `CCC1CC(=O)C=C(c2ccc(OCC(=O)O)c(Cl)c2Cl)C1` (stereo not given), the melting point was 163 to 165 °C.
With `COC(=O)c1ncn2c1CN=C(c1ccccc1F)c1cc(Cl)ccc1-2` the melting point was 179 to 181 °C.
For `CCOC(=O)C(=CNC1CC1)C(=O)c1c(F)cc(F)c(F)c1N(Cc1ccccc1)C(C)=O`, the melting point was 119 to 121 °C.
In the case of `O=C(O)c1ccc(-c2ccc(-c3ccc(C(F)(F)F)cc3)o2)cc1`, the melting point is reported as 270 to 271 °C.
Molecule `O=C(NC(=O)C(Cl)CCl)Nc1cccc(Cl)c1Cl` (stereo not given) has a melting point of 195 to 196 °C.
Molecule `BrCc1c(Br)csc1Br` has a melting point of 89 to 90 °C.
With `O=C(O)COc1ccc(SCc2ccc(OCc3ccc(Cl)cc3)cc2)c2c1CCC2` the melting point was 170 to 172 °C.
For `O=S(=O)(NCc1ccnc2ccccc12)c1ccc(-c2cc(Cl)ccc2Cl)cc1`, the melting point was 124 °C.
